Columns and labels:
human type I sPLA2 = human type I sPLA2 (Homo sapiens, UniProt P04054); assay: Inhibition test of human secretory phospholipase A2, chromogenic assay, Type I enzyme; format: biochemical; settings: human type I enzyme 90 ng/well, absorbance change 30 min, OD 405 nm
Text: (§1) In order to identify and evaluate an inhibitor of recombinant human secretory phospholipase A2, the following chromogenic assay is utilized. The assay herein has been applied for high volume screening wherein 96 well microtiterplate is used. A general explanation for such assay is described in “Analysis of Human Synovial Fluid Phospholipase A2 on Short Chain Phosphatidylcholine-Mixed Micelles: Development of a Spectrophotometric Assay Suitable for a Micortiterplate Reader” (Analytical Biochemistry, 204, pp 190-197, 1992 by Laure. J. Reynolds. Lori L. Hughes and Edward A. Dennis: the disclosure of which is incorporated herein for reference.
Type I enzyme: sPLA2 solution (330 ng/μl) (described in A. Kanda et. al., Biochimica et Biophysica Acta. 1171 (1992) 1-10) is dissolved in the assay (enzyme solution 27 μl is diluted with 1973 μl of the reaction buffer).
(§2) 1) 0.106 ml of the substrate solution is put in a centrifugal tube, and nitrogen gas is jetted to remove the solvent. 0.54 ml of Triton-X 100 is added thereto, the mixture is stirred, thereafter it is sonified in a bath type sonification to dissolve. To the resulting product are added 17.8 ml of the reaction buffer and 0.46 ml of DTNB, and 0.18 ml each of the admixture is poured to wells of the 96 well microtiterplate.
(§3) 2) 10 μl of a test compound (or solvent blank) are added in accordance with alignment of plates which has been previously set.
(§4) 3) Incubation is effected at 40° C. for 15 minutes.
(§5) 4) 90 ng/well in case of human type I enzyme, 50 ng/well in case of human type II enzyme, 40 μl/well in case of human type V enzyme, 15 μl/well in case of human type X enzyme were reacted.
(§6) 5) Changes in absorbancy for 30 minutes for humane type I, type II, and type X enzyme and for 45 min for human type V enzyme, are measured by a plate reader, and inhibition activity was calculated (OD: 405 nm).
(§7) 6) IC50 was determined by plotting log concentration with respect to inhibition values within 10% to 90% inhibiting range.

human type II sPLA2 = biological target: T1, human type II sPLA2 (Homo sapiens, UniProt P14555); assay: Inhibition test of human secretory phospholipase A2, chromogenic assay, Type II enzyme; format: biochemical; settings: human type II enzyme 50 ng/well, absorbance change 30 min, OD 405 nm
T1 sequence (P14555 21-144): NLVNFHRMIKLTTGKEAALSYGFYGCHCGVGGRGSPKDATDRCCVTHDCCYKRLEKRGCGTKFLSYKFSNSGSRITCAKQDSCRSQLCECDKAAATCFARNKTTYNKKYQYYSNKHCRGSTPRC
Text: as §1
Type II enzyme: 1 mg of sPLA2 is dissolved in 1 ml of an enzyme buffer. Thereafter, the solution is maintained at 4° C. In the assay, 5 >l of the solution is diluted with 1995 μl of the reaction buffer to be used.
as §2, §3, §4, §5, §6, §7

human type V sPLA2 = biological target: T2, human type V sPLA2 (Homo sapiens, UniProt P39877); assay: Inhibition test of human secretory phospholipase A2, chromogenic assay, Type V enzyme; format: biochemical; settings: human type V enzyme (CHO supernatant) 40 μl/well, absorbance change 45 min, OD 405 nm
T2 construct: made in house; unpurified culture supernatant used
T2 sequence (P39877 21-138): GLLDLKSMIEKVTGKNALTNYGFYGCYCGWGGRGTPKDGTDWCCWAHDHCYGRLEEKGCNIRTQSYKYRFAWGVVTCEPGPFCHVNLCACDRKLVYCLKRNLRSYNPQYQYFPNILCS
Text: (§8) In order to identify and evaluate an inhibitor of recombinant human secretory phospholipase A2, the following chromogenic assay is utilized. The assay herein has been applied for high volume screening wherein 96 well microtiterplate is used. A general explanation for such assay is described in “Analysis of Human Synovial Fluid Phospholipase A2 on Short Chain Phosphatidylcholine-Mixed Micelles: Development of a Spectrophotometric Assay Suitable for a Micortiterplate Reader” (Analytical Biochemistry, 204, pp 190-197, 1992 by Laure. J. Reynolds. Lori L. Hughes and Edward A. Dennis: the disclosure of which is incorporated herein for reference. Type V and Type X enzymes: cDNA sequences encoding human type V and Type X sPLA2 (Chen et., al., J. Biol. Chem., 1994. 269, 2365-2368 and Cupillard et., al., J. Biol. Chem., 1997, 272, 15745-15762) were inserted into downstream of promoter of pSVL SV40 Late Promoter Expression Vector (Amersham Pharmacia Biotech K. K.), mammalian cell expression vector, forwardly. The recombinant expression vectors were transfected into CHO host cells by LipofectAMINE regent (Gibco BRL.) according to the attached manual and the cells expressed each of human type V and type X sPLA2 stably. After each expressing cells were cultured in σ-MEM medium including 10% fetal serum albumin for 3 days, the cells supernatant were collected and measured enzymatic activity. 1) 0.106 ml of the substrate solution is put in a centrifugal tube, and nitrogen gas is jetted to remove the solvent. 0.54 ml of Triton-X 100 is added thereto, the mixture is stirred, thereafter it is sonified in a bath type sonification to dissolve. To the resulting product are added 17.8 ml of the reaction buffer and 0.46 ml of DTNB, and 0.18 ml each of the admixture is poured to wells of the 96 well microtiterplate. 2) 10 μl of a test compound (or solvent blank) are added in accordance with alignment of plates which has been previously set. 3) Incubation is effected at 40° C. for 15 minutes. 4) 90 ng/well in case of human type I enzyme, 50 ng/well in case of human type II enzyme, 40 μl/well in case of human type V enzyme, 15 μl/well in case of human type X enzyme were reacted. 5) Changes in absorbancy for 30 minutes for humane type I, type II, and type X enzyme and for 45 min for human type V enzyme, are measured by a plate reader, and inhibition activity was calculated (OD: 405 nm). 6) IC50 was determined by plotting log concentration with respect to inhibition values within 10% to 90% inhibiting range.

human type X sPLA2 = biological target: T3, human type X sPLA2 (Homo sapiens, UniProt O15496); assay: Inhibition test of human secretory phospholipase A2, chromogenic assay, Type X enzyme; format: biochemical; settings: human type X enzyme (CHO supernatant) 15 μl/well, absorbance change 30 min, OD 405 nm
T3 construct: made in house; unpurified culture supernatant used
T3 sequence (O15496 43-165): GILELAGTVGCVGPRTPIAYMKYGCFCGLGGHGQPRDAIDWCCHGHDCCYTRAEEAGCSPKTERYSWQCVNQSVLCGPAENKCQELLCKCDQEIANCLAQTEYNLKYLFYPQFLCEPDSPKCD
Text: as §8

Sequence of human type I sPLA2 (P04054 23-148): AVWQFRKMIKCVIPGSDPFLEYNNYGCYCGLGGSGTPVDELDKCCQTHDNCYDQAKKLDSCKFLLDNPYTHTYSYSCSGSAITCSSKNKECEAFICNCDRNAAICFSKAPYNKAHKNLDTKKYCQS

| Compound | IC50 (human type I sPLA2) [nM] | IC50 (human type II sPLA2) [nM] | IC50 (human type V sPLA2) [nM] | IC50 (human type X sPLA2) [nM] | melting point |
| --- | --- | --- | --- | --- | --- |
| Cc1ccc(Cc2c3c(c4c(OC(C)C(=O)O)cc(C)nn24)C(C(N)=O)=CCC3)cc1 (stereo not drawn) [Compound I-4] | 139 | 21 | 2 | 7 |  |
| Cc1cc(OC(C)C(=O)O)c2c3c(c(Cc4ccc(Cl)cc4)n2n1)CCC=C3C(N)=O (stereo not drawn) [Compound I-6] | 86 | 17 | 1 | 5 |  |
| NC(=O)C1=CCCc2c1c1c(OCC(=O)O)cc(-c3ccccc3)nn1c2Cc1ccccc1 [Compound I-9] | 51 | 8 | 0.2 | 1 |  |
| Cc1cn2c(Cc3ccccc3)c3c(c2c(OCC(=O)O)n1)C(C(N)=O)=CCC3 [Compound I-11] | 234 | 9 | 1 | 6 |  |
| NC(=O)C1=CCCc2c1c1c(OCC(=O)O)nccn1c2Cc1ccccc1 [Compound I-12] | 86 | 8 | 2 | 4 |  |
| Cc1cn2c(Cc3ccccc3)c3c(c2c(OC(C)C(=O)O)n1)C(C(N)=O)=CCC3 (stereo not drawn) [Compound I-13] | 93 | 19 | 4 | 7 |  |
| Cc1cn2c(CC3CCCCC3)c3c(c2c(OC(C)C(=O)O)n1)C(C(N)=O)=CCC3 (stereo not drawn) [Compound I-14] | 57 | 14 | 1 | 1 |  |

The next lines start with the values.

| IC50 (human type I sPLA2) [nM] | IC50 (human type II sPLA2) [nM] | IC50 (human type V sPLA2) [nM] | IC50 (human type X sPLA2) [nM] | melting point | Compound |
| --- | --- | --- | --- | --- | --- |
| 170 | 7 | 2 | 4 | 256 to 258 °C (dec.) | Cc1cc(OCC(=O)O)c2c3c(c(Cc4ccccc4)n2n1)CCC=C3C(N)=O [Compound I-1] |
| 79 | 15 | 3 | 4 |  | Cc1cc(OC(C)C(=O)O)c2c3c(c(Cc4ccccc4)n2n1)CCC=C3C(N)=O (stereo not drawn) [Compound I-2] |
| 460 | 11 | 2 | 10 |  | Cc1ccc(Cc2c3c(c4c(OCC(=O)O)cc(C)nn24)C(C(N)=O)=CCC3)cc1 [Compound I-3] |
| 147 | 8 | 1 | 6 |  | Cc1cc(OCC(=O)O)c2c3c(c(Cc4ccc(Cl)cc4)n2n1)CCC=C3C(N)=O [Compound I-5] |
| 215 | 10 | 2 | 16 |  | COc1cccc(Cc2c3c(c4c(OCC(=O)O)cc(C)nn24)C(C(N)=O)=CCC3)c1 [Compound I-7] |
| 76 | 23 | 2 | 12 |  | COc1cccc(Cc2c3c(c4c(OC(C)C(=O)O)cc(C)nn24)C(C(N)=O)=CCC3)c1 (stereo not drawn) [Compound I-8] |
| 49 | 6 | 0.2 | 2 |  | COc1cccc(Cc2c3c(c4c(OCC(=O)O)cc(-c5ccccc5)nn24)C(C(N)=O)=CCC3)c1 [Compound I-10] |
